Experimental data from PMC10227015, “From a drug repositioning to a structure-based drug design approach to tackle acute lymphoblastic leukemia” (Nature Communications, 2023).
Like-named read-outs stand apart in the source and are kept apart here.

How the values were obtained:
CCRF-CEM cell line = assay: dCK cellular assay: CCRF-CEM proliferation in the presence of dT and dC; assay type: cell-based, human; conditions: Homo sapiens; Figure 2a, CCRF-CEM cell line, mean; read-out: IC50 (nM) (Cell Prolif)
Method in brief: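 Two conditions in T-ALL CCRF-CEM cells: compound only, and compound with thymidine blocking de novo synthesis and deoxycytidine rescuing via dCK. Metabolic dye fluorescence (560/590 nm) gives % proliferation vs DMSO; IC50s, mean ± SD of at least three triplicate runs.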

dCK-C3S-S74E [1] = molecular target: T1, dCK-C3S-S74E (Homo sapiens, UniProt P27707, form not given/S74E)
[2] = Acute in vivo toxicity, unique IP injection; conditions: male, mouse, in vivo; Swiss mice, IP, unique injection; read-out: Maximum tolerated dose
Description: (§1) To evaluate the in vivo toxicity selected compounds were injected by intraperitoneal (IP) route to 7 weeks-old male Swiss mice (n = 2) at 10, 20, 40, 50, or 80 mg/kg by unique injection. […] Compounds were administered in their hydrochloride salt forms. Mice were then observed closely for the next one hour, then every hour for 8 h. Observations were continued for 72 h for signs of pain or toxicity such as change in the behavior and in the activity in the cage (decreased locomotion) or change in the appearance (curved back, eyes half-closed, bristle hair, hips hollowed out). In vivo toxicity of compound OR0642 at 40 and 80 mg/kg was also assessed in the NOD-SCID-IL2Rγc null (NSG) mice model for 2 weeks in the presence and absence of dT to confirm the safety of the compound. […]. Blood samples were collected and spun at 10,000 × g prior to collecting the plasma supernatants. All plasma samples were frozen at −80 °C before sample processing. 13 μl of each plasma sample was mixed with 33 μl of acetonitrile to precipitate proteins and extract the compound. Samples were vortexed for 5 min and then placed in an ultrasonic bath for 1 min. The precipitated proteins were sedimented by centrifugation (15,000 × g, 5 min, 16 °C). Supernatants were transferred to a microplate to be analyzed by LC–MS/MS. All samples were analyzed with a UHPLC coupled to a Shimadzu LC-MS 8030 triple quadrupole. The solutions of a standard range, prepared with plasma from untreated mice, were analyzed in the same series of injections.

Swiss male mice = assay: Acute in vivo toxicity, unique IP injection; conditions: mice, 80 mg/kg/day
Description: as §1

dCK-C3S-S74E [3] = molecular target: T1, dCK-C3S-S74E; assay: Enzymatic assay (PK/LDH coupled), dC phosphorylation by dCK in the presence of ATP; assay type: biochemical
Description: (§2) For enzymatic assays, cells were re-suspended in 20 mM TRIS, pH 8 500 mM NaCl, 0.1% BRIJ-35 and 5% glycerol buffer and one EDTA free anti-protease tablet was added (Roche). After sonication and centrifugation (30,000 × g), the supernatant was loaded on a 5 ml HisTrap FF column (GE healthcare) pre-equilibrated with 20 mM TRIS, pH 8, 500 mM NaCl, 0.01% BRIJ-35 and 5% glycerol buffer. The protein was then eluted by the same buffer containing 250 mM imidazole after a wash containing 25 mM imidazole. The eluted fraction was applied on a HiPrep 26/10 desalting column (GE healthcare) pre-equilibrated with 20 mM TRIS, pH 8, 500 mM NaCl, 5% glycerol and 0.01% BRIJ-35 buffer. Finally, protein in a 20% glycerol buffer was flash frozen in liquid nitrogen and stored at −80 °C.
(§3) Kinetic analyses were performed using a spectrophotometric continuous enzymatic-coupled assay using pyruvate kinase (PK) and lactate dehydrogenase (LDH). Analysis of the effect of compounds on dCK-C3S-S74E activity was performed using dC as substrate and UTP/ATP as phosphate donors. UTP is the physiological dCK-phosphate donor[46] and it was used to determine activation versus inhibition behavior. ATP was used to calculate IC50 values, as it allows the analysis of a dose response curve. The PK/LDH coupled assay is based on the conversion of phosphoenolpyruvate (PEP) and UDP/ADP to pyruvate and UTP/ATP by PK and the subsequent conversion of pyruvate to lactate by LDH. The latter step requires NADH, which is oxidized to NAD^+. NADH is fluorescent (excitation at 337 nm and emission at 460 nm), but not NAD^+. Thus, the measurement of fluorescent decrease at 460 nm is a measure of kinase activity. dCK experiments were performed in a buffer containing 50 mM HEPES, pH 7.5, 5 mM MgCl2, 1 mM DTT, and 100 mM KCl. Buffer was supplemented with PK (0.01 U/µl), LDH (0.02 U/µl), PEP (1 mM), NADH (300 µM) and compounds at varying concentrations. For UTP assays, protein concentration was 2 μM, substrate 200 µM (dC), and UTP 1 mM. For ATP assays, protein concentration was 100 nM (and 50 nM when indicated), substrate 100 µM (dC), and ATP 1 mM. All measurements were performed on a microplate reader Pherastar FS (BMG Labtech). All assays were performed in triplicate and each experiment was performed at least twice. The data are presented as mean ± SD. The results were plotted as kinetics and the velocity was determined for each condition as the slope of the linear range of the curve. For each compound concentration, the velocity of the reaction (according to V = d[P]/dt) was normalized with respect to the drug free control and velocity ratios were compared. IC50 values corresponding to enzymatic inhibition in ATP were calculated by nonlinear regression curves using GraphPad Prism software 9.4.0.

dCK-C3S-S74E [4] = molecular target: T1, dCK-C3S-S74E; assay: Thermal shift assay (TSA)
Description: BL21 pRIL Escherichia coli cells were transformed with dCK-plasmids (dCK-C4S-S74E (for crystallization assays) and dCK-C3S-S74E (for TSA, enzymatic and ITC assays)). […] Protein dCK-C3S-S74E used for other assays contained only three mutated cysteines. The S74E mutation mimics the phosphorylated state of this serine, which favors the open conformation of the enzyme, making it competent for nucleoside binding[45] to evaluate the binding affinity with compounds.
For binding assays (TSA, ITC and crystallography) cells were re-suspended in 50 mM TRIS, pH 8, 500 mM NaCl, 30 mM imidazole and 10% glycerol buffer and one EDTA free anti-protease tablet was added (Roche). After sonication and centrifugation (30,000 × g), the supernatant was loaded on a 5 ml HisTrap FF column (GE healthcare) pre-equilibrated with resuspension buffer. Protein was then eluted by resuspension buffer containing 500 mM imidazole. Protein eluted fractions were mixed and concentrated. Protein was further purified by size exclusion chromatography (superdex 200 16/600, GE healthcare) in 20 mM HEPES, pH 7.5, and 200 mM NaCl before concentration to 30 mg/ml and storage at −80 °C.
Thermal shift assay (TSA) experiments were performed in 384-well PCR white plates in the assay buffer containing 20 mM HEPES, pH 7.5 and 200 mM NaCl. […] Plates were centrifuged at 200 × g for 2 min at 4 °C. […] Raw fluorescence data were treated, and the melting temperatures (Tm) were calculated using CFX Manager 3.1 software (Bio-Rad). ΔTm represents the difference in Tm between the protein in the presence of compound and the protein alone (both at 2% DMSO). Each experiment was performed at least twice (with technical triplicates) and data are presented as the mean ± SD.

[5] = Plasma pharmacokinetics after IP administration; assay type: in vivo; conditions: male, Swiss, mouse, mice, dose 40 mg/Kg
Description: as §1

dCK-C3S-S74E [6] = molecular target: T1, dCK-C3S-S74E; assay: Enzymatic assay (PK/LDH coupled), dC phosphorylation by dCK in the presence of UTP; assay type: biochemical; conditions: presence of UTP
Description: as §2
as §3, with “Analysis of the effect of compounds on dCK-C3S-S74E activity was performed using dC as substrate and UTP/ATP as phosphate donors.” left out

T1 sequence (P27707 whole entry S74E, form open): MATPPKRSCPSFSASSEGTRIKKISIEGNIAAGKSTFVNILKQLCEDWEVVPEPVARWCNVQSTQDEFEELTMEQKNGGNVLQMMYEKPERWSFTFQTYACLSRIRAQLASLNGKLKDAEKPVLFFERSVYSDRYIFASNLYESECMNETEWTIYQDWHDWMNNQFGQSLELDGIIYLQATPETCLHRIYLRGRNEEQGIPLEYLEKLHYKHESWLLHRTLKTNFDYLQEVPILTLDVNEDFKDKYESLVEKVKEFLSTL

SMILES | IC50 (CCRF-CEM cell line) | ΔTm (º) (TSA) (dCK-C3S-S74E [1]) | MTD at 72 h [2] | in vivo tolerance (Swiss male mice) | Enzymatic activity (ATP) Mean (% activity) (dCK-C3S-S74E [3]; 0.02 µM) | Enzymatic activity (ATP) Mean (% activity) (dCK-C3S-S74E [3]; 0.04 µM) | Enzymatic activity (ATP) Mean (% activity) (dCK-C3S-S74E [3]; 0.08 µM) | Enzymatic activity (ATP) Mean (% activity) (dCK-C3S-S74E [3]; 0.16 µM) | Enzymatic activity (ATP) Mean (% activity) (dCK-C3S-S74E [3]; 0.31 µM) | Enzymatic activity (ATP) Mean (% activity) (dCK-C3S-S74E [3]; 0.63 µM) | Enzymatic activity (ATP) Mean (% activity) (dCK-C3S-S74E [3]; 1.25 µM) | Enzymatic activity (ATP) Mean (% activity) (dCK-C3S-S74E [3]; 2.5 µM) | Enzymatic activity (ATP) Mean (% activity) (dCK-C3S-S74E [3]; 5 µM) | IC50 (dCK-C3S-S74E [3]; read-out: ENZYMATIC ASSAY IC50, presence of ATP, [dCK] = 50 nM (footnote A)) | ΔTm (º) (TSA) (dCK-C3S-S74E [4]; Figure 2a, mean) | Thermal Shift Assay Mean (ΔTm (º)) (dCK-C3S-S74E [4]; Figure 2b) | Cmax [5] | Tmax [5] | half-life ([5]; read-out: T ½ (converted)) | ENZYMATIC ASSAY (Activation/Inhibition) (dCK-C3S-S74E [6])
CCCN(c1nc(-c2nc(N)cc(N)n2)cs1)c1cc(-c2ccc(OCC(=O)N3CCN(C)CC3)nc2)ccc1C [OR0630] | 245 nM | 17.35 º |  |  |  |  |  |  |  |  |  |  |  |  |  |  |  |  |  | 
CCCN(c1nc(-c2nc(N)cc(N)n2)cs1)c1cc(-c2ccc(S(=O)(=O)N3CCN(C)CC3)nc2)ccc1C [OR0634] |  |  | > 80 mg/kg | well tolerated | 89.7% | 80.2% | 45.4% | 12.5% | 4.0% | 2.2% | 1.9% | 1.6% | 1.6% | 0.1 ± 0.082 µM | 17.45 º | 17.5 º | 5.5 ± 1.3 µM | 1 h | 2.15 ± 0.283 h | I
